Reference: ChEMBL document CHEMBL3580592, “Combretastatin A-4 inspired novel 2-aryl-3-arylamino-imidazo-pyridines/pyrazines as tubulin polymerization inhibitors, antimitotic and anticancer agents” (Medchemcomm, 2014)
Activity calls are given as the source filed them. The rule behind the calls is not given here.

What was measured:
[1] = target: Tubulin; test: Inhibition of tubulin polymerization in HEK293T cell lysate after 15 mins by spectrophotometry; format: cell-free, Homo sapiens; conditions: hek-293t
[2] = Cytotoxicity against African green monkey Vero cells assessed as cell death by MTT assay; format: cell-based; conditions: chlorocebus sabaeus, read-out: LC50 (the source's name)
[3] = system: HEK-293T; test: Cytotoxicity against human HEK293T cells assessed as cell death by MTT assay; format: functional; conditions: read-out: LC50 (the source's name)
[4] = target: Tubulin (Homo sapiens) (UniProt P68371+Q9H4B7+P0DPH7+P68366+Q13509+Q71U36+P04350+Q3ZCM7+P07437+P68363+Q9BQE3+Q6PEY2+Q13885+Q9BVA1+Q9BUF5); test: Inhibition of tubulin assembly in HEK293T cells assessed as formation of abnormal mitotic spindles at LC50 after 24 hrs by immunofluorescence based confocal microscopy; format: cell-based; conditions: HEK-293T
[5] = system: SiHa; test: Cytotoxicity against human SiHa cells assessed as cell death after 24 hrs by MTT assay; format: functional; conditions: read-out: LC50 (the source's name)
[6] = system: SiHa; test: Cytotoxicity against human SiHa cells assessed as cell death after 48 hrs by MTT assay; format: functional; conditions: read-out: LC50 (the source's name)
[7] = system: MCF7; test: Cytotoxicity against human MCF7 cells assessed as cell death after 24 hrs by MTT assay; format: functional; conditions: MCF7, 24 h, read-out: LC50 (the source's name)
[8] = system: MCF7; test: Cytotoxicity against human MCF7 cells assessed as cell death after 48 hrs by MTT assay; format: functional; conditions: MCF7, 48 h, read-out: LC50 (the source's name)
[9] = system: HEK-293T; test: Cytotoxicity against human HEK293T cells assessed as cell death after 24 hrs by MTT assay; format: functional; conditions: read-out: LC50 (the source's name)
[10] = system: HEK-293T; test: Cytotoxicity against human HEK293T cells assessed as cell death after 48 hrs by MTT assay; format: functional; conditions: read-out: LC50 (the source's name)
[11] = system: HeLa; test: Cytotoxicity against human HeLa cells assessed as cell death after 24 hrs by MTT assay; format: functional; conditions: read-out: LC50 (the source's name)
[12] = system: HeLa; test: Cytotoxicity against human HeLa cells assessed as cell death after 48 hrs by MTT assay; format: functional; conditions: read-out: LC50 (the source's name)
[13] = system: HEK-293T; test: Cytotoxicity against human HEK293T cells assessed as inhibition of colony formation at LC50 after 24 hrs by crystal violet staining based clonogenic cell survival assay; format: functional
[14] = system: HEK293; test: Inhibition of anchorage-dependent HEK293T cell migration at LC50 after 6 to 24 hrs by wound healing assay; format: functional, cell-based; conditions: Homo sapiens
[15] = system: HEK-293T; test: Induction of cell cycle arrest in HEK293T cells assessed as cells accumulation at G2/M phase at LC50 after 24 hrs by PI staining-based FACS scan flow cytometry (reference value: 22.2 +/- 1.5%); format: functional, Homo sapiens
[16] = system: HEK-293T; test: Induction of apoptosis in HEK293T cells assessed as chromatin condensation and nuclear fragmentation at LC50 after 24 hrs by DAPI staining-based fluorescent microscopy; format: functional, cell-based; conditions: Homo sapiens
[17] = system: HEK-293T; test: Induction of apoptosis in HEK293T cells assessed as apoptotic nuclei at LC50 after 24 hrs by DAPI staining-based fluorescent microscopy; format: functional, cell-based; conditions: Homo sapiens
[18] = system: HEK-293T; test: Induction of apoptosis in HEK293T cells assessed as increase in p53 expression at LC50 after 24 hrs by Western blot analysis; format: functional, cell-based; conditions: Homo sapiens
[19] = system: HEK-293T; test: Induction of apoptosis in HEK293T cells assessed as reduction in PARP level at LC50 after 24 hrs by Western blot analysis; format: functional, cell-based; conditions: Homo sapiens
[20] = system: HEK-293T; test: Induction of apoptosis in HEK293T cells assessed as activation of caspase 3 at LC50 after 24 hrs by immunocytochemical analysis; format: functional, cell-based; conditions: Homo sapiens
[21] = system: HEK-293T; test: Induction of DNA damage in HEK293T cells assessed as increase in comet length at LC50 after 24 hrs by Comet assay relative to untreated control; format: functional, cell-based; conditions: Homo sapiens
[22] = system: HEK-293T; test: Induction of chromosomal damage in HEK293T cells assessed as micronuclei formation at LC50 after 24 hrs by cytokinesis-block micronucleus assay relative to untreated control; format: functional, cell-based; conditions: Homo sapiens

## COc1cc(Nc2c(-c3ccc(F)cc3)nc3cnccn23)cc(OC)c1OC
[1]
  IC50: 36 µM
[2]
  CC50: 48 µM
[3]
  CC50: 36 µM

## COc1ccc(Nc2c(-c3ccc(Cl)cc3)nc3cnccn23)cc1
[1]
  IC50: 46 µM
[2]
  CC50: 45 µM
[3]
  CC50: 34 µM

## COc1ccc(-c2nc3sc4ccccc4n3c2Nc2cc(OC)c(OC)c(OC)c2)cc1O
[1]
  IC50: 20 µM
[2]
  CC50: 26 µM
[3]
  CC50: 22 µM

## COc1ccc(Nc2c(-c3ccc(OC)cc3)nc3ccccn23)cc1
[1]
  IC50: 34 µM
[2]
  CC50: 54 µM
[3]
  CC50: 34 µM

## COc1ccc(-c2nc3cc(C)ccn3c2Nc2cc(OC)c(OC)c(OC)c2)cc1O
[1]
  IC50: 10 µM
[4]
  inhibition: Active
[2]
  CC50: 48 µM
[3]
  CC50: 8 µM
[5]
  CC50: 4 µM
[6]
  CC50: 1.5 µM
[7]
  CC50: 15 µM
[8]
  CC50: 10 µM
[9]
  CC50: 8 µM
[10]
  CC50: 3 µM
[11]
  CC50: 15 µM
[12]
  CC50: 7 µM
[13]
  inhibition: Active
[14]
  inhibition: Active
[15]
  Activity: 36.6%
[16]
  Activity: Active
[17]
  Activity: Active
[18]
  Activity: Active
[19]
  Activity: Active
[20]
  Activity: Active
[21]
  Activity: Active
[22]
  Activity: Active

## COc1ccc(Nc2c(-c3ccc(OC)c(O)c3)nc3ncccn23)cc1
[1]
  IC50: 54 µM
[2]
  CC50: 56 µM
[3]
  CC50: 54 µM

## COc1ccc(Nc2c(-c3ccc(F)cc3)nc3cnccn23)cc1
[1]
  IC50: 44 µM
[2]
  CC50: 72 µM
[3]
  CC50: 56 µM

## COc1ccc(-c2nc3cccc(C)n3c2Nc2cc(OC)c(OC)c(OC)c2)cc1O
[1]
  IC50: 38 µM
[2]
  CC50: 74 µM
[3]
  CC50: 63 µM

## COc1ccc(-c2nc3cnccn3c2Nc2cc(OC)c(OC)c(OC)c2)cc1O
[1]
  IC50: 38 µM
[2]
  CC50: 50 µM
[3]
  CC50: 38 µM

## COc1cc(Nc2c(C3C=Nc4ccccc43)nc3cnccn23)cc(OC)c1OC (stereo not drawn)
[1]
  IC50: 11 µM
[4]
  inhibition: Active
[2]
  CC50: 70 µM
[3]
  CC50: 12 µM
[5]
  CC50: 7 µM
[6]
  CC50: 3 µM
[7]
  CC50: 18 µM
[8]
  CC50: 6 µM
[9]
  CC50: 12 µM
[10]
  CC50: 3 µM
[11]
  CC50: 17 µM
[12]
  CC50: 9 µM
[13]
  inhibition: Active
[14]
  inhibition: Active
[15]
  Activity: 87.4%
[16]
  Activity: Active
[17]
  Activity: Active
[18]
  Activity: Active
[19]
  Activity: Active
[20]
  Activity: Active
[21]
  Activity: Active
[22]
  Activity: Active

## COc1ccc(-c2nc3cnccn3c2Nc2cc(OC)c(OC)c(OC)c2)cc1
[1]
  IC50: 40 µM
[2]
  CC50: 75 µM
[3]
  CC50: 54 µM

## COc1ccc(Nc2c(-c3cccc(B(O)O)c3)nc3ccccn23)cc1
[1]
  IC50: 48 µM
[2]
  CC50: 58 µM
[3]
  CC50: 48 µM

## COc1ccc(Nc2c(-c3cc(OC)c(OC)c(OC)c3)nc3ccccn23)cc1
[1]
  IC50: 14 µM
[4]
  inhibition: Active
[2]
  CC50: 65 µM
[3]
  CC50: 10 µM
[5]
  CC50: 5 µM
[6]
  CC50: 2 µM
[7]
  CC50: 8 µM
[8]
  CC50: 5 µM
[9]
  CC50: 10 µM
[10]
  CC50: 5 µM
[11]
  CC50: 9 µM
[12]
  CC50: 5 µM
[13]
  inhibition: Active
[14]
  inhibition: Active
[15]
  Activity: 40.7%
[16]
  Activity: Active
[17]
  Activity: Active
[18]
  Activity: Active
[19]
  Activity: Active
[20]
  Activity: Active
[21]
  Activity: Active
[22]
  Activity: Active

## COc1ccc(/C=C\c2cc(OC)c(OC)c(OC)c2)cc1O [COMBRETASTATIN A4]
[2]
  CC50: 11 µM
[3]
  CC50: 8 µM
[5]
  CC50: 0.6 µM
[6]
  CC50: 0.2 µM
[7]
  CC50: 7 µM
[8]
  CC50: 2 µM
[9]
  CC50: 8 µM
[10]
  CC50: 0.2 µM
[11]
  CC50: 6 µM
[12]
  CC50: 0.8 µM
[16]
  Activity: Active
[17]
  Activity: Active
[18]
  Activity: Active
[19]
  Activity: Active
[20]
  Activity: Active
[21]
  Activity: Active
[22]
  Activity: Active

## COc1ccc(-c2nc3sccn3c2Nc2cc(OC)c(OC)c(OC)c2)cc1O
[1]
  IC50: 36 µM
[2]
  CC50: 62 µM
[3]
  CC50: 36 µM

## COc1cc(Nc2c(-c3ccc(Cl)cc3)nc3cnccn23)cc(OC)c1OC
[1]
  IC50: 32 µM
[2]
  CC50: 32 µM
[3]
  CC50: 25 µM

## COc1ccc(Nc2c(-c3cccc(O)c3)nc3ccccn23)cc1
[1]
  IC50: 42 µM
[2]
  CC50: 74 µM
[3]
  CC50: 47 µM

## COc1cc(Nc2c(-c3cccc(O)c3)nc3cnccn23)cc(OC)c1OC
[1]
  IC50: 39 µM
[2]
  CC50: 63 µM
[3]
  CC50: 42 µM

## COc1cc(-c2nc3cnccn3c2Nc2cc(OC)c(OC)c(OC)c2)cc(OC)c1O
[1]
  IC50: 34 µM
[2]
  CC50: 62 µM
[3]
  CC50: 34 µM

## COc1ccc(-c2nc3ccccn3c2Nc2cc(OC)c(OC)c(OC)c2)cc1O
[1]
  IC50: 12 µM
[4]
  inhibition: Active
[2]
  CC50: 50 µM
[3]
  CC50: 10 µM
[5]
  CC50: 5 µM
[6]
  CC50: 2 µM
[7]
  CC50: 20 µM
[8]
  CC50: 12 µM
[9]
  CC50: 10 µM
[10]
  CC50: 5 µM
[11]
  CC50: 15 µM
[12]
  CC50: 10 µM
[13]
  inhibition: Active
[14]
  inhibition: Active
[15]
  Activity: 33.6%
[16]
  Activity: Active
[17]
  Activity: Active
[18]
  Activity: Active
[19]
  Activity: Active
[20]
  Activity: Active
[21]
  Activity: Active
[22]
  Activity: Active

## COc1ccc(Nc2c(-c3ccc(OC)c(O)c3)nc3cnccn23)cc1
[1]
  IC50: 38 µM
[2]
  CC50: 62 µM
[3]
  CC50: 38 µM
